Assay results: ChEMBL document CHEMBL1201862, “PubChem BioAssay data set” (2004)
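48-hour exposure; five concentrations; linearly interpolated endpoints. Abbreviation: GI50, concentration required for 50% inhibition of growth.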 Active and inactive are the calls of the source. Rule as the data show it: active = GI50 up to about 1.1 µM and inactive = higher.

Tests used:
Assay in all cases: inhibition of tumour cell growth, NCI panel, 48 h
K562 = system: K562
HT-29 = system: HT-29
Malme-3M = system: Malme-3M
MDA-MB-231 = system: MDA-MB-231
NCI-H460 = system: NCI-H460
NCI-H226 = system: NCI-H226
HCT-116 = system: HCT-116
NCI/ADR-RES = system: NCI/ADR-RES
MDA-MB-435 = system: MDA-MB-435
IGROV-1 = system: IGROV-1
U-251 = system: U-251
SK-MEL-5 = system: SK-MEL-5
T47D = system: T47D
SK-MEL-28 = system: SK-MEL-28
786-0 = system: 786-0
A498 = system: A498
CCRF-CEM = system: CCRF-CEM
TK-10 = system: TK-10
MOLT-4 = system: MOLT-4

Measured: GI50

CN(C)Cc1cc(Cl)c(O)c(CN(C)C)c1
inactive: K562 > 100 µM | HT-29 > 100 µM | Malme-3M > 100 µM | MDA-MB-231 > 100 µM | NCI-H460 > 100 µM | NCI-H226 > 100 µM | HCT-116 > 100 µM | NCI/ADR-RES > 100 µM | MDA-MB-435 > 100 µM | IGROV-1 > 100 µM | U-251 > 100 µM | SK-MEL-5 > 100 µM | T47D > 100 µM | SK-MEL-28 > 100 µM | 786-0 > 100 µM | A498 > 100 µM | CCRF-CEM > 100 µM | TK-10 > 100 µM

COC(=O)C1=C(C)NC(C)=C(C(=O)OC)C1c1cccc(NO)c1
inactive: K562 4.76 µM | HT-29 16 µM | Malme-3M 16.4 µM | MDA-MB-231 16.6 µM | NCI-H460 15.1 µM | NCI-H226 15.2 µM | HCT-116 13 µM | NCI/ADR-RES 20 µM | MDA-MB-435 16.8 µM | IGROV-1 16.7 µM | U-251 16.1 µM | SK-MEL-5 15.5 µM | T47D 13.5 µM | SK-MEL-28 15.1 µM | 786-0 15 µM | A498 > 100 µM | CCRF-CEM 3.79 µM | TK-10 14.2 µM

COC(=O)c1ccccc1/C=C1\Cc2ccc3c(c2C1=O)CCCC3
inactive: K562 > 100 µM | HT-29 > 100 µM | Malme-3M > 100 µM | MDA-MB-231 > 100 µM | NCI-H460 > 100 µM | NCI-H226 > 100 µM | HCT-116 > 100 µM | NCI/ADR-RES > 100 µM | MDA-MB-435 > 100 µM | IGROV-1 > 100 µM | U-251 > 100 µM | T47D > 100 µM | SK-MEL-28 > 100 µM | 786-0 > 100 µM | MOLT-4 > 100 µM | A498 > 100 µM | CCRF-CEM > 100 µM | TK-10 > 100 µM

C/C(=N\O)c1ccc2cc(Br)c3ccccc3c2c1
inactive: K562 46.8 µM | HT-29 2.89 µM | Malme-3M 19.8 µM | MDA-MB-231 15.3 µM | NCI-H460 16.2 µM | HCT-116 11.9 µM | NCI/ADR-RES 19.9 µM | MDA-MB-435 24.2 µM | IGROV-1 28 µM | U-251 14.6 µM | SK-MEL-5 16.8 µM | T47D 22.5 µM | SK-MEL-28 19.3 µM | 786-0 15.1 µM | A498 17.7 µM | CCRF-CEM 17.5 µM | TK-10 20.3 µM

COc1ccc(C(OCC2OC(n3cc(C)c(=O)[nH]c3=O)CC2n2cc(Cn3cc(F)c(=O)[nH]c3=O)nn2)(c2ccccc2)c2ccccc2)cc1 (centres undefined)
inactive: HT-29 6.28 µM | Malme-3M 9.04 µM | MDA-MB-231 2.69 µM | NCI-H226 4.42 µM | HCT-116 3.38 µM | NCI/ADR-RES 31.6 µM | MDA-MB-435 1.75 µM | IGROV-1 7.96 µM | U-251 3.78 µM | SK-MEL-5 7.82 µM | T47D 5.71 µM | SK-MEL-28 11.3 µM | 786-0 3.67 µM | MOLT-4 4.54 µM | A498 10.1 µM | CCRF-CEM 2.56 µM | TK-10 13.6 µM

COc1ccc([C@@]23CCC(=O)C[C@@H]2N(C)CC3)cc1OC
inactive: K562 > 100 µM | HT-29 > 100 µM | Malme-3M > 100 µM | MDA-MB-231 > 100 µM | NCI-H460 > 100 µM | NCI-H226 > 100 µM | NCI/ADR-RES > 100 µM | MDA-MB-435 > 100 µM | IGROV-1 > 100 µM | U-251 > 100 µM | SK-MEL-5 > 100 µM | T47D > 100 µM | SK-MEL-28 > 100 µM | 786-0 > 100 µM | MOLT-4 > 100 µM | A498 > 100 µM | CCRF-CEM > 100 µM | TK-10 > 100 µM

C/C(CC/C(C)=N/O)=N\O
inactive: K562 > 100 µM | HT-29 > 100 µM | Malme-3M > 100 µM | MDA-MB-231 > 100 µM | NCI-H460 > 100 µM | NCI-H226 > 100 µM | HCT-116 > 100 µM | NCI/ADR-RES > 100 µM | MDA-MB-435 > 100 µM | IGROV-1 > 100 µM | U-251 > 100 µM | SK-MEL-5 > 100 µM | T47D > 100 µM | SK-MEL-28 > 100 µM | 786-0 > 100 µM | MOLT-4 > 100 µM | A498 > 100 µM | TK-10 > 100 µM
